What all share (type): cell-based
Experiment [1] relates to Escherichia coli K12 W3110. As for the experimental part:
(§1) Species used in MIC assays included gram-negative Escherichia coli K12 W3110, Pseudomonas aeruginosa laboratory strain PAO2 and Serratia marcescens laboratory strain and gram-positive Staphylococcus aureus NCTC 6571 and Micrococcus luteus laboratory strain.
(§2) Bacterial cultures were prepared by streaking the bacterial strains on to agar plates with an inoculation loop and incubating overnight at 37° C. A single colony was then selected and placed in 5 mL of Iso-Sensitest broth using an inoculation loop and incubated at 37° C. with shaking overnight.
(§3) MIC values were attained according to the protocol described by J. M. Andrews et al. [J. M. Andrews, J. Antimicrob. Chemother., 2001, 48, 5-16] and were conducted in 96-well microtitre plates in triplicate. 10-50 μL of each overnight culture was inoculated into 1.2 mL of Iso-Sensitest broth and grown at 37° C. with shaking. […] The inoculum was diluted ten-fold with Iso-Sensitest broth before use (to ˜10^3 cfu/spot). Peptide solutions were initially dissolved in DMSO (5 mg mL^−1) and then diluted further with Iso-Sensitest broth to achieve a concentration range of 4 mgL^−1 to 512 mgL^−1 using 2-fold serial dilutions. Samples were vortexed between dilutions where necessary to aid dissolution. 50 μL of inoculum and 50 μL of peptide solution were added to each test well to achieve a final concentration range of 2 mgL^−1 to 256 mgL^−1. Separate dilutions of ampicillin and DMSO were made up in a similar manner to act as a positive antibacterial control and a +DMSO control, respectively. 50 μL of inoculum and 50 μL of Iso-Sensitest broth were used as a positive control and 100 μL of inoculum was used as a negative control. Positive and negatives controls were conducted multiple times in parallel per plate. […] Quantitative data were attained as A650nm values using a BioTek® Synergy™ H4 Hybrid Multi-Mode Microplate Reader.

Experiment [2] has as its system Pseudomonas aeruginosa laboratory strain PAO2. As for the experimental part: as §1, §2, §3
The subject of experiment [3] is Serratia marcescens laboratory strain. Conditions: 16 h. As for the experimental part:
as §1, §2, §3

Experiment [4] deals with Staphylococcus aureus NCTC 6571. The procedure: as §1, §2, §3
For experiment [5], the system named is E. coli (ATCC 29522) biofilm. The experiment can be described thus: Single species biofilm treatment, crystal violet assay. The settings on record: 100 μM peptoid, 24 hours, FIG. 17C. The procedure: C. albicans (NCTC 3179) was subcultured aerobically on Sabouraud agar plates and propagated in yeast peptone dextrose broth. E. coli (ATCC 29522) and S. aureus (NCTC 6571) were grown on blood agar plates and propagated in brain heart infusion (BHI) broth.
Overnight cultures of C. albicans were washed and resuspended in a modified RPMI-1640 (Sigma-Aldrich, St Louis, USA) medium to yield an inoculum of 1.0×10^6 cells/ml. Overnight cultures of S. aureus or E. coli were washed and resuspended in brain heart infusion broth (Oxoid, Basingstoke, UK) to yield an inoculum of 5.0×10^6 cells/ml. A total volume of 100 μl of each inoculum was added to microtitre plate wells (Thermo Fisher Scientific, Roskilde, Denmark). An initial biofilm was allowed to form for 4 hours. Wells were washed three times with 200 μl PBS to facilitate removal of planktonic cells and the biofilms were then treated with 100 μM of peptoids 1-4 in the appropriate broth. Plates were incubated for a further 24 hours to allow biofilm maturation. After removal of planktonic cells by washing, biofilms were quantified by the crystal violet assay or by PMA-qPCR.
Biofilm quantification by crystal violet assay Washed biofilms were fixed with 100 μl methanol for 10 minutes. Following removal of methanol, the wells were air dried and stained with crystal violet solution (Clin-Tech Ltd, Guildford, UK) for 20 minutes at room temperature. Excess stain was removed by washing, the plate was then air dried and bound crystal violet was re-solubilised in 16 μl 33% acetic acid prior to reading at 570 nm in a microtitre plate reader (Tecan GENios, Ziirich, Switzerland).

The test system of experiment [6] is Leishmania mexicana (M379). As for the experimental part: Leishmania mexicana (M379) promastigote parasites were maintained at 26° C. in Schneider's Insect medium (Sigma-Aldrich) supplemented with heat-inactivated foetal bovine sera (FBS, 15%; Biosera Ltd). Cells were counted using a Neubauer Improved Haemocytometer. Promastigotes were transformed into axenic amastigotes by a pH and temperature shift as previously described. A culture of recently transformed (three days) promastigotes in the late log phase was transferred into Schneider's Insect medium supplemented with 20% heat-inactivated FBS (pH 5.5) at 5×10^5 parasites/mL. After 6 days, the parasites were in the metacyclic stage and used for transformation to amastigote-like forms by transfer in the same medium at 32° C. at 5×10^5 parasites/mL. After additional 5-7 days, the parasites should be in the amastigote stage and be ready for cytotoxicity studies and infections.
Cytotoxicity analyses were performed in 96-well plates (Costar, Fisher Scientific) using Alamar Blue (Invitrogen) for cell viability detection as previously described.
Promastigote and amastigote L. mexicana were pre-incubated with the compounds in triplicate (5 mM stock solutions in DMSO; Amphotericin B was used as a positive control; untreated parasites with DMSO as a negative control) in 50 μl of the corresponding media at 4×106 mL-1 for 1 hour. Afterwards, 40 μl were removed from each well before the addition of 90 μl of the corresponding media, followed by incubation for 24 hours at 4×105 mL-1. Then, 10 μl Alamar Blue solution (Invitrogen) was added to each well for an incubation of 4 hours prior to assessing cell viability using a fluorescent plate reader (Biotek; Ex 560 nm/Em 600 nm). To investigate the effects of serum on the efficacy of the peptoids, the assay described above was modified using serum-free medium for the pre-incubation time. For these assays, the parasites were washed three times in serum-free medium before adding them to the compound solutions. All of the experiments described above were carried out on a minimum of two separate occasions to ensure a robust data set was collected.

Setting [7] is: second figure of cell, 37° C., 16 h, Iso-Sensitest broth.

Results on one compound are retold here after patent publication US20180201647A1, “Peptoid” (The University of Durham, priority 2015, published 2018).

Like-named read-outs stand apart in the source and are kept apart here. Where a SMILES comes first, the peptide text is derived from it. [ ]: non-standard residue; d: D form. Nspe = C[C@H](NCC(=O)O)c1ccccc1; NhArg = N=C(N)NCCCCNCC(=O)O; Nlys = NCCCCNCC(=O)O

On to `C[C@@H](c1ccccc1)N(CC(N)=O)C(=O)CN(C(=O)CN(CCCCN)C(=O)CN(C(=O)CN(C(=O)CN(CCCCN)C(=O)CN(C(=O)CN(C(=O)CN(CCCCNC(=N)N)C(=O)CN(C(=O)CN(C(=O)CNCCCCNC(=N)N)[C@@H](C)c1ccccc1)[C@@H](C)c1ccccc1)[C@@H](C)c1ccccc1)[C@@H](C)c1ccccc1)[C@@H](C)c1ccccc1)[C@@H](C)c1ccccc1)[C@@H](C)c1ccccc1` [Peptoid 2, (NhArg-Nspe-Nspe)2(NLys-Nspe-Nspe)2] (H-[NhArg][Nspe][Nspe][NhArg][Nspe][Nspe][Nlys][Nspe][Nspe][Nlys][Nspe][Nspe]-NH2; N-terminus assumed), for which the “MIC E. coli” value was determined as 17 µM in experiment [1] (K12, 16 h) and 32 mgL^−1 in experiment [1] (setting [7]). Further, the “MIC P. aeruginosa” value in experiment [2] (laboratory strain PAO2, 16 h) was 17 µM; in experiment [2] (setting [7]), 32 mgL^−1. In addition, the “MIC S. marcescens” value in experiment [3] (laboratory strain) turned out to be 134 µM; in experiment [3] (second figure of cell, 37° C., Iso-Sensitest broth), 256 mgL^−1. In addition, the “MIC S. aureus” value worked out at 17 µM in experiment [4] (NCTC 6571, 16 h) and 32 mgL^−1 in experiment [4] (setting [7]). The “activity against the E. coli biofilm” value in experiment [5] is on record as “strongest anti-bacterial activity”. The IC50 in experiment [6] (parasite stage not given, read-out: IC50 L. mexicana) worked out at 34 µM. Besides, the “active against L. mexicana” value in experiment [6] (statement in words) is “active”.

Broadly, the IC50 is the concentration that gives 50% inhibition.
